Tests used:
[1] = Determination of urinary excretions of isoflavonoids in perimenopausal women (survey)
Experimental: To accomplish the above object, the inventors first conducted a dietary survey, determination of urinary excretions of isoflavonoids, and a questionnaire survey about menopausal syndrome (unidentified clinical syndrome) in perimenopausal women in a broad geographical area including urban communities.
Furthermore, women with paramenia and those within 5 years of the menopause being taken together as menopausal subjects, a questionnaire survey was conducted using 17 items which are in routine use in the diagnosis of menopausal syndrome [17 items as a modification of Kupperman menopausal index (Kupperman H. S., et al., (1953), J. Clin. Endocrinol. Metabol., 13, 688-703), i.e. 1. hot flushes, 2. perspiration, 3. local sensation of cold, 4. shortness of breath, 5. numbness of limbs, 6. hypesthesia, 7. difficulty in falling asleep, 8. fitful sleep, 9. irritability, 10. nervousness, 11. melancholy, 12. vertigo, nausea, 13. weakness(fatigue), 14. stiff shoulders, pain in joints, muscular pain, 15. headache, 16. palpitation, 17. tingling sensation] and the simplified menopausal index (SMI) was calculated. With subjects with SMI values not less than 20 being taken as a group of high climacteric symptoms and those with SMI values not greater than 19 as a group of low climacteric symptoms, the amount of intake of isoflavonoids and the urinary excretion of isoflavonoids were respectively compared between the groups.

[2] = Urinary excretion of isoflavonoids after single ingestion of soy milk in healthy adult volunteers; details: healthy adult volunteers 25-33 years of age
[3] = human, in vivo
[4] = SMI not less than 20 vs SMI not greater than 19, equol p<0.01

| urinary excretions, group of high climacteric symptoms vs group of low climacteric symptoms [1, 4] | subjects in whom detected in urine ([1]; of the 95 subjects, number (%)) | average urinary excretions of isoflavonoids ([1]; women aged between 40 and 60) [µmol/day] | urinary excretions after single ingestion of soy milk [2] | average urinary excretions of isoflavonoids ([1]; female, human, in vivo) [µmol/day] | average excretions of equol (urinary) ([1]; in vivo) [µmol/day] | subjects in whom detected in urine ([1]; in vivo) | urinary excretions, group of high climacteric symptoms vs group of low climacteric symptoms ([1]; in vivo) | equol in urine when intake of soy milk increased two-fold [3] | SMILES |
| --- | --- | --- | --- | --- | --- | --- | --- | --- | --- |
| no intergroup difference | detected in all the subjects | 10.0 | increased in a dose-related fashion | – | – | – | – | – | O=c1c(-c2ccc(O)cc2)coc2cc(O)cc(O)c12 [genistein] |
| no intergroup difference | – | – | increased in a dose-related fashion | 19.6 | – | – | – | – | O=c1c(-c2ccc(O)cc2)coc2cc(O)ccc12 [daidzein] |
| – | – | – | – | – | 11.9 | 46 (51.6%) | significantly low | not detected | Oc1ccc(C2COc3cc(O)ccc3C2)cc1 (centres unmarked) [equol] |

Reference: US7345089B2, “Microbial method of making equol-containing composition and product made” (Otsuka Pharmaceutical Co., Ltd., priority 1997, dated 2008)
